# Experimental data published in US20210077420A1, “Methods of Treatment of Gout” (priority 2017, published 2021).
# Columns and labels:
# Format in all cases: physicochemical
# [1] = Solubility enhancement of MSU crystals in phosphate buffered saline (Examples 2A, 2B); details: Table 3
# [2] = as above
# Method: A phosphate buffered saline diluent was prepared by dissolving 8.2 g of NaCl and 0.68 g of KH2PO4 in 500 mL of deionised water in a 1 L flask. An NaOH solution was prepared by dissolving 0.399 g of NaOH in 100 mL of deionised water. 39.1 mL of the 0.1 M NaOH solution was then added to the 1 L flask and the volume was made up to 1 L with deionised water. The pH was adjusted to 7.4.
# Approximately 5 mg of monosodium urate crystals was then suspended in 4.75 mL of the phosphate buffered saline diluent. A 0.25 mL amount of a solubility enhancer was then added to the suspension of monosodium urate crystals. […] In the case of the solubility enhancer being a mix of components, equal portions by volume of each component was added, unless indicated otherwise. This was then stirred for about 16 hours.
# A sample of the supernatant was then taken, filtered using standard techniques (e.g. a syringe filter), and analysed by high-performance liquid chromatography (HPLC) to determine the concentration of uric acid/urate present in solution.
# [3] = Solubility enhancement of MSU crystals in aqueous NaCl solution (Example 1); details: 16 h; for % vs control: 2.5 mL enhancer + 2.5 mL NaCl solution, control (water only) = 100%; for Concentration of urate: 2.5 mL enhancer + 2.5 mL NaCl solution (8.2 g/L), about 8 mg MSU, 25 °C, mixes equal portions by volume, control 0.043
# Method: A NaCl solution was prepared by dissolving 8.2 g of NaCl in 1 L of deionised water. Approximately 8 mg of monosodium urate crystals was then suspended in 2.5 mL of the NaCl solution. A 2.5 mL amount of a solubility enhancer was then added to the suspension of monosodium urate crystals. In the case of the solubility enhancer being a mix of components, equal portions by volume of each component was added. This was then mixed for about 16 hours on a roller mixer.
# A sample of the supernatant was then taken, filtered using standard techniques (e.g. a syringe filter), and analysed by high-performance liquid chromatography (HPLC) to determine the concentration uric acid/MSU present in solution.
# All samples were analysed using a HPLC system equipped with a variable wavelength UV detector and a reversed phase column (5 μm ODS2, 4.6 mm×150 mm, Waters Spherisorb). The mobile phase was 35 mM sodium acetate in water with pH adjusted to 5.0 using acetic acid. The flow rate was set at 1 mL/min and UV detection at a wavelength of 292 nm. Sample injection volume was 50.0 μL and all operations were carried out at 25° C. Standard solutions of MSU were made up in the range of 15-250 μg/mL and analysed as above.
# [4] = Table 2, 5% by volume solubility enhancer in PBS pH 7.4, control = 100%
# [5] = 0.1% solubility enhancer in PBS
# [6] = Table 3, 5% by volume solubility enhancer in PBS
compound,measurement,setting,value
OCc1ccccc1 [Benzyl alcohol],% vs control,[1]; 0.5% solubility enhancer in PBS,152%
same,% vs control,[1]; 2% solubility enhancer in PBS,170%
same,% vs control,[1]; 3% solubility enhancer in PBS,197%
same,% vs control,[1]; 4% solubility enhancer in PBS,227%
same,% vs control,[2]; [4],263%
O=C(O)c1ccccc1 [Benzoic acid],% vs control,[1]; [5],147%
same,% vs control,[1]; 1% solubility enhancer in PBS,159%
same,% vs control,[2]; [6],189%
CC(O)CO (centres unmarked) [Propylene glycol],% vs control,[2]; [4],114%
same,% vs control,[3],114%
O=C(O)c1ccc(O)cc1 [4-hydroxybenzoic acid],% vs control,[1]; 0.05% solubility enhancer in PBS,160%
same,% vs control,[1]; [5],193%
same,% vs control,[1]; 1% solubility enhancer in PBS,205%
same,% vs control,[2]; [6],241%
CC(=O)OC/C=C(\C)CCC=C(C)C [Geranyl acetate],% vs control,[3],209%
CCCCCCCC/C=C\CCCCCCCC(=O)O [Oleic acid],% vs control,[1]; 1% solubility enhancer in PBS,118%
same,% vs control,[1]; 2% solubility enhancer in PBS,119%
O=C(O)/C=C/C(=O)O [Fumaric acid],% vs control,[3],151%
Span 85,Concentration of urate,[3],57 µg/mL
CN1CCCC1=O [N-methylpyrrolidone],% vs control,[3],200%
OCc1ccc(O)cc1 [4-hydroxybenzyl alcohol],% vs control,[1]; 1% solubility enhancer in PBS,151%
same,% vs control,[2]; [6],190%
CCCCCCCC/C=C\CCCCCCCC(=O)OC [Methyl oleate],% vs control,[2]; [4],119%
OCCO [Ethylene glycol],% vs control,[2]; [4],112%
OCC(O)CO [Glycerol],% vs control,[2]; [4],114%
same,% vs control,[3],149%
Sorbitan monooleate,Concentration of urate,[3],65 µg/mL
same,% vs control,[3],151%
CC(=O)OCC(COC(C)=O)OC(C)=O [Triacetin],% vs control,[1]; 4% solubility enhancer in PBS,111%
same,% vs control,[2]; [4],165%
same,% vs control,[2]; [6],113%
O=C(O)c1ccccc1O [Salicylic acid],% vs control,[1]; [5],281%
